Source: ChEMBL document CHEMBL2150974 (J Med Chem, 2012)
The source made the active and inactive calls. No cut-off for these calls is given here.

Experiments:
[1] = molecular target: Vascular endothelial growth factor receptor 2 (Homo sapiens) (UniProt P35968); assay: Inhibition of VEGFR2 at 10 uM
[2] = molecular target: Serine/threonine-protein kinase N1 (Homo sapiens) (UniProt Q16512); assay: Inhibition of PRK1 at 10 uM
[3] = molecular target: Tyrosine-protein kinase receptor UFO (Homo sapiens) (UniProt P30530); assay: Inhibition of AXL at 10 uM
[4] = molecular target: Hepatocyte growth factor receptor (Homo sapiens) (UniProt P08581); assay: Inhibition of MET at 10 uM
[5] = molecular target: Serine/threonine-protein kinase PLK1 (Homo sapiens) (UniProt P53350); assay: Inhibition of PLK1 at 10 uM
[6] = molecular target: T1, Mitogen-activated protein kinase 14 (Homo sapiens, UniProt Q16539); assay: Inhibition of p38alpha-dependent TNFalpha production in human whole blood
T1 sequence (Q16539 whole entry): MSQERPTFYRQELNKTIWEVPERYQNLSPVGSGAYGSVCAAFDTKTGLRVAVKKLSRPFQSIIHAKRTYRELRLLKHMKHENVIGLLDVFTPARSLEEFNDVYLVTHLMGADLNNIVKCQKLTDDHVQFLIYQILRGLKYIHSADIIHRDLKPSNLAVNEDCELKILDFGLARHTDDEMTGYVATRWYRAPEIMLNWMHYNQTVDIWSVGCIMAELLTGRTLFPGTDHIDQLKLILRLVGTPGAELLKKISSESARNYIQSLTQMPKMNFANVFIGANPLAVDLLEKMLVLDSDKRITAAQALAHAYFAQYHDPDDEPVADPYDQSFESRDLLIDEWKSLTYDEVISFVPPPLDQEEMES

[7] = molecular target: Insulin-like growth factor 1 receptor (Homo sapiens) (UniProt P08069); assay: Inhibition of IGF1R at 10 uM
Insulin-like growth factor 1 receptor (Homo sapiens), sequence (P08069 31-736 limits assumed): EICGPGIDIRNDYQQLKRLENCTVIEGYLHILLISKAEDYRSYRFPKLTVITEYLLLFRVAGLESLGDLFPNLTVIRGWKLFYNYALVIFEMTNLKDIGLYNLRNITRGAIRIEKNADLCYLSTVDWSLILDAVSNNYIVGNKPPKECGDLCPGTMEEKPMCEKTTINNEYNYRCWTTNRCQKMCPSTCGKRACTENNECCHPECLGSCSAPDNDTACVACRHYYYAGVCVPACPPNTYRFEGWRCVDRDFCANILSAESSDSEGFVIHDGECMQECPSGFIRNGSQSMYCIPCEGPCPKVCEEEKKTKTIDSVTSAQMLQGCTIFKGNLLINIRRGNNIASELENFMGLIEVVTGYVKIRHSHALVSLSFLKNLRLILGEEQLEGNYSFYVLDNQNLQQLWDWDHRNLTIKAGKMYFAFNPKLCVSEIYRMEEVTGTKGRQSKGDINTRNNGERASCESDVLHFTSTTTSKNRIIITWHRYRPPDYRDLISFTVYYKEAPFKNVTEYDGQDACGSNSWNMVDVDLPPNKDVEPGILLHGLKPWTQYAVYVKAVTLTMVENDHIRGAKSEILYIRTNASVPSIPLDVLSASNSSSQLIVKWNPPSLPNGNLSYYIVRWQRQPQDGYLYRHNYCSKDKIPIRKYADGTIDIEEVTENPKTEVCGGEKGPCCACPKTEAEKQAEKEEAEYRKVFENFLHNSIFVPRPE
Insulin-like growth factor 1 receptor (Homo sapiens), sequence (P08069 741-1367 limits assumed): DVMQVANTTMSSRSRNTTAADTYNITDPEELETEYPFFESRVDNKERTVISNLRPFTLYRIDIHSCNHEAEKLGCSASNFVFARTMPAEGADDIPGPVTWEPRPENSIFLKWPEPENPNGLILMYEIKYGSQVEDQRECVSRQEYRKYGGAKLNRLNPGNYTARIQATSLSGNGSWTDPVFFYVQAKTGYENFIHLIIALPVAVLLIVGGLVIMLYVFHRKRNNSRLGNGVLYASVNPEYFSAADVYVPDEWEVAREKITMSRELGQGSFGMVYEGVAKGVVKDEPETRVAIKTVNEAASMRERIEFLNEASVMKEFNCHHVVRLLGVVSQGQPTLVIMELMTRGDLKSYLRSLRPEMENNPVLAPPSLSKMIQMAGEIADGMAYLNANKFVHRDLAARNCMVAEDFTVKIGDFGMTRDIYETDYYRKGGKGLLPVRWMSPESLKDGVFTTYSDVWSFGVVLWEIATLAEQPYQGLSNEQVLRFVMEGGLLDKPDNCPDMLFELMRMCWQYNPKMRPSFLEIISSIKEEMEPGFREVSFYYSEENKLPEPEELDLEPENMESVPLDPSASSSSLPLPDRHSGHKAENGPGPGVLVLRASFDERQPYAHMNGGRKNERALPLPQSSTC

[8] = molecular target: BDNF/NT-3 growth factors receptor (Homo sapiens) (UniProt Q16620); assay: Inhibition of TRKB at 10 uM
BDNF/NT-3 growth factors receptor (Homo sapiens), sequence (Q16620 32-822 limits assumed): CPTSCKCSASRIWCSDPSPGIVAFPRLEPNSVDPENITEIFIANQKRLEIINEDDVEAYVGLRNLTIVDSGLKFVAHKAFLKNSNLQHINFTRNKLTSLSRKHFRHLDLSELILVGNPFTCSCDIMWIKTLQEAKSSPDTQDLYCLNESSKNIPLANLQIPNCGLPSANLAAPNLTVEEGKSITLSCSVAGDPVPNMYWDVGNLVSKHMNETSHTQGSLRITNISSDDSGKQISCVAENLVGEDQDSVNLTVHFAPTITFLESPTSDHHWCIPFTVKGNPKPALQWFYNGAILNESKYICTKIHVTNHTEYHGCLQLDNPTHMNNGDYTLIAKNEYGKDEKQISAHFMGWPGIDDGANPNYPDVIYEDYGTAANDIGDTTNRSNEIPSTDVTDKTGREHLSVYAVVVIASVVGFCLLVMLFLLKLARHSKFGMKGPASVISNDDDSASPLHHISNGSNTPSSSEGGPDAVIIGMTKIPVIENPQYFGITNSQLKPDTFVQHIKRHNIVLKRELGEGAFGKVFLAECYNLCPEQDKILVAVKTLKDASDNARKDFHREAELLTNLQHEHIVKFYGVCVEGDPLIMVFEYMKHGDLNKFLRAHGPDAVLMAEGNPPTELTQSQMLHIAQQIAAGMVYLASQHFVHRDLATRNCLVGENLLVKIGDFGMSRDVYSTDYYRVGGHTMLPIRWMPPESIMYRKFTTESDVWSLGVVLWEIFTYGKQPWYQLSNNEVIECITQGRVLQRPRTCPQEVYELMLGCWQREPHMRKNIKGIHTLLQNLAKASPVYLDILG

[9] = molecular target: Proto-oncogene tyrosine-protein kinase Src (Homo sapiens) (UniProt P12931); assay: Inhibition of SRC at 10 uM
Proto-oncogene tyrosine-protein kinase Src (Homo sapiens), sequence (P12931 2-536 limits assumed): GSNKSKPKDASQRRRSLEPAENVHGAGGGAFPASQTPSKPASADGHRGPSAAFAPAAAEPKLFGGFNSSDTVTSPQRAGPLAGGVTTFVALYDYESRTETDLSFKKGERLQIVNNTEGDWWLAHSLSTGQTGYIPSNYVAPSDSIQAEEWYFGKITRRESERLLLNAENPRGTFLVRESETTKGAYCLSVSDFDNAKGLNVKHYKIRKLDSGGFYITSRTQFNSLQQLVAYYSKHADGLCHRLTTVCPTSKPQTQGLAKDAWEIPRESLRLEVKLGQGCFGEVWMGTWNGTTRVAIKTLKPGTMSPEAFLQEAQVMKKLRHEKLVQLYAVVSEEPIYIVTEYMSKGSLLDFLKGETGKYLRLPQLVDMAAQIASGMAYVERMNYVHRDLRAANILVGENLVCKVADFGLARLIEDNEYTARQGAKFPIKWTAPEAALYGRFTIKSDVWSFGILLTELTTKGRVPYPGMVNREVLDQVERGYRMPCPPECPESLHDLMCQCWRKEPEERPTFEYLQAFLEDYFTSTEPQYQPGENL

[10] = molecular target: T2, NUAK family SNF1-like kinase 1 (Homo sapiens) (UniProt O60285); assay: Inhibition of ARK5 at 10 uM
T2 sequence (whole entry): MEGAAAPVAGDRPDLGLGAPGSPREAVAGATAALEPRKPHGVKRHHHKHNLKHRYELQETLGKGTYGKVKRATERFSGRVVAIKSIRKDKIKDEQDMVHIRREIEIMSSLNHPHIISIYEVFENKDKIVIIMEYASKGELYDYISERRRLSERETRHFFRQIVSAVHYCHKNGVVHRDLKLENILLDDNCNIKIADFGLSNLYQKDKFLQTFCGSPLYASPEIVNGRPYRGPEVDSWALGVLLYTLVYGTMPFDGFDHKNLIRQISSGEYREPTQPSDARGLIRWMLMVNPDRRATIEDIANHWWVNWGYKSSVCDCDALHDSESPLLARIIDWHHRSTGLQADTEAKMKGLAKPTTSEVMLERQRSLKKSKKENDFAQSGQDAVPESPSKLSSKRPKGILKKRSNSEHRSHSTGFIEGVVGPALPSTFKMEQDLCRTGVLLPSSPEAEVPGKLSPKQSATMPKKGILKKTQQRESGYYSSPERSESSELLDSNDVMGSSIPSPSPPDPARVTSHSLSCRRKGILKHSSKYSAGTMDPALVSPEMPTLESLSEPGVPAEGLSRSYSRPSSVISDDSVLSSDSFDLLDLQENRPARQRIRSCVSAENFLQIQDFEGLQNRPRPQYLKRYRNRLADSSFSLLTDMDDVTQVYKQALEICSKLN

[11] = molecular target: RAC-alpha serine/threonine-protein kinase (Homo sapiens) (UniProt P31749); assay: Inhibition of AKT1 at 10 uM
RAC-alpha serine/threonine-protein kinase (Homo sapiens), sequence (P31749 whole entry): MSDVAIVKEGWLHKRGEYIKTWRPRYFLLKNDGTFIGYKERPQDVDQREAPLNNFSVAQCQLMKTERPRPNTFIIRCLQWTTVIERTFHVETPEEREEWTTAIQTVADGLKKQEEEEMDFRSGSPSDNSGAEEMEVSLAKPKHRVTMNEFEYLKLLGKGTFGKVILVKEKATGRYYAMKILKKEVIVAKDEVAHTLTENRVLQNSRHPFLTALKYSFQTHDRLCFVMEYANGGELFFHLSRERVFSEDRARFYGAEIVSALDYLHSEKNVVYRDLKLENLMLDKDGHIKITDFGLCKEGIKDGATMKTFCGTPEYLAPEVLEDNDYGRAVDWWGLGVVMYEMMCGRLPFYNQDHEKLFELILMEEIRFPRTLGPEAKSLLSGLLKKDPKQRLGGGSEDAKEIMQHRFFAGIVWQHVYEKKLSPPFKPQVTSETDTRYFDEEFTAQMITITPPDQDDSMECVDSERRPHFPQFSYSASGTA

[12] = molecular target: T1, Mitogen-activated protein kinase 14; assay: Inhibition of p38alpha by immunosorbent based kinase assay
[13] = molecular target: T3, Serine/threonine-protein kinase PLK4 (Homo sapiens) (UniProt O00444); assay: Inhibition of SAK at 10 uM
T3 sequence (whole entry): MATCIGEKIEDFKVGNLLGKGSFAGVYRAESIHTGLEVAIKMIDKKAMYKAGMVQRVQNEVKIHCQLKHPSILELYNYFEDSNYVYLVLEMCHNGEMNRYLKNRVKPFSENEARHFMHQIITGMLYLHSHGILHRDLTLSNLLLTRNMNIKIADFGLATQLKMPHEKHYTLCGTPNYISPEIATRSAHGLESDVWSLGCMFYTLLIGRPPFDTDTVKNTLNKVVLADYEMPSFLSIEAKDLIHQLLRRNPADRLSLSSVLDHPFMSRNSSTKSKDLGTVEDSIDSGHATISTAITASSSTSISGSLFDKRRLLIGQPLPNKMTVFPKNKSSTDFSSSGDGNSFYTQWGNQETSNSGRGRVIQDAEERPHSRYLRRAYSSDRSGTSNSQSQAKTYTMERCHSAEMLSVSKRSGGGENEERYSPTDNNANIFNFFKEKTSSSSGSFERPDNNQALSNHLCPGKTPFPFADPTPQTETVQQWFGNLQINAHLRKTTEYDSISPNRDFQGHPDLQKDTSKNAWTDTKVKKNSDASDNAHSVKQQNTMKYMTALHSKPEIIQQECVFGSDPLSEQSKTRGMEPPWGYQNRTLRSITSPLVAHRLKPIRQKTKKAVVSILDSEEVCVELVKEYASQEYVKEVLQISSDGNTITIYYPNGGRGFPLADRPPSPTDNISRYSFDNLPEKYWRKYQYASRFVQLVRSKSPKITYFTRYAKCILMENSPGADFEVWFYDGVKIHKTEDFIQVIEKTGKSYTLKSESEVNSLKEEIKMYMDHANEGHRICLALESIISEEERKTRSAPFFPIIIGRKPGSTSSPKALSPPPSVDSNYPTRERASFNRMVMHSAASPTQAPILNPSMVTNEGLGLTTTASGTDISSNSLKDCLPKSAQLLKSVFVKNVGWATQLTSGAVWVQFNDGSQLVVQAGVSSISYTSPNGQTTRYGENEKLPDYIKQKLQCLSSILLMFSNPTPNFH

[14] = molecular target: Aurora kinase B (Homo sapiens) (UniProt Q96GD4); assay: Inhibition of AuroraB at 10 uM
Aurora kinase B (Homo sapiens), sequence (Q96GD4 whole entry): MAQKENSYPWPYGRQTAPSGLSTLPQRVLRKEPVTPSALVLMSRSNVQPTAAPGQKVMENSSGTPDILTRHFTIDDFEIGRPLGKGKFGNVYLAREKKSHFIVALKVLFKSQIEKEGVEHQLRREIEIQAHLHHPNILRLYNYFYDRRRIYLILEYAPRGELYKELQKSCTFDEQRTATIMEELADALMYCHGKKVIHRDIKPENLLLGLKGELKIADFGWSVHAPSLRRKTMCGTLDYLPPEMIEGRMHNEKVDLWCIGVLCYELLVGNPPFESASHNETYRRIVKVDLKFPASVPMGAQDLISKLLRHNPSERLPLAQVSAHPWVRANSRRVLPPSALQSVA

[15] = molecular target: Casein kinase II subunit alpha (Homo sapiens) (UniProt P68400); assay: Inhibition of CK2alpha1 at 10 uM
[16] = molecular target: Insulin receptor (Homo sapiens) (UniProt P06213); assay: Inhibition of INSR at 10 uM
[17] = molecular target: Focal adhesion kinase 1 (Homo sapiens) (UniProt Q05397); assay: Inhibition of FAK at 10 uM
[18] = system: Serine/threonine-protein kinase B-raf (Homo sapiens), P15056 [V600E]; assay: Inhibition of BRAF V600E mutant at 10 uM

Serine/threonine-protein kinase N1 (Homo sapiens), sequence (Q16512 2-942 limits assumed): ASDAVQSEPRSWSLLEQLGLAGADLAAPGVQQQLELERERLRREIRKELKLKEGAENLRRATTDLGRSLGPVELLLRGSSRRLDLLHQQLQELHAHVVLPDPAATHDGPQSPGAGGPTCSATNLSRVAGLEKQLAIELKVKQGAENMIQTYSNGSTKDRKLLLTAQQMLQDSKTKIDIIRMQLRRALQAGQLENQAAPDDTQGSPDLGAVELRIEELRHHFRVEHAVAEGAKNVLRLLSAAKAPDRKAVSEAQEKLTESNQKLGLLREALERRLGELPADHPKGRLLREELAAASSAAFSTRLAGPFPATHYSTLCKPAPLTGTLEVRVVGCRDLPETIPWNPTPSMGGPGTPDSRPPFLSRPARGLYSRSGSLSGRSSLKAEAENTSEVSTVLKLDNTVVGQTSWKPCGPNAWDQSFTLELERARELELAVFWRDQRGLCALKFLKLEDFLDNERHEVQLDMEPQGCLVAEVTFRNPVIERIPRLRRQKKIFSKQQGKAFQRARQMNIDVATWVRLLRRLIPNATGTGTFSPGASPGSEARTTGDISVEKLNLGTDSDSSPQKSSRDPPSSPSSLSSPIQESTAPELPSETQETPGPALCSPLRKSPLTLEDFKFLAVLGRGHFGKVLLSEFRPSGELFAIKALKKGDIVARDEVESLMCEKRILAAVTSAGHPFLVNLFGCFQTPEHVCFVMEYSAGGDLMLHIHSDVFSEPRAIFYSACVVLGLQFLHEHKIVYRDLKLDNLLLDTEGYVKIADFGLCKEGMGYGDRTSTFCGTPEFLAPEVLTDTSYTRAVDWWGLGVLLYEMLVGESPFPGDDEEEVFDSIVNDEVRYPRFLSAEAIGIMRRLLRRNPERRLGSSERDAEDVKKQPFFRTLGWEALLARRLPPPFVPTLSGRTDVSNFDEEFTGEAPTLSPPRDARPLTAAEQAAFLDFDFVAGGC

Row | SMILES | inhibition [1] | inhibition [2] | inhibition [3] | inhibition [4] | inhibition [5] | IC50 [6] [µM] | inhibition [7] | inhibition [8] | inhibition [9] | inhibition [10] | inhibition [11] | IC50 [12] [µM] | inhibition [13] | inhibition [14] | inhibition [15] | inhibition [16] | inhibition [17] | inhibition [18]
1 | CC1(C)OC[C@H](COc2cccc3c2CCc2cc(Nc4ccccc4N)ccc2C3=O)O1 | inactive | inactive | inactive | inactive | inactive | 158 | inactive | inactive | inactive | inactive | inactive | 1.04 | inactive | inactive | inactive | inactive | inactive | inactive
2 | CC1(C)OC[C@H](COc2ccc3c(c2)CCc2cc(Nc4ccc(F)cc4F)ccc2C3=O)O1 | inactive | inactive | inactive | inactive | inactive | 170 | inactive | inactive | inactive | inactive | inactive | 0.02 | inactive | inactive | inactive | inactive | inactive | inactive
3 | COc1cccc2c1CCc1cc(Nc3ccc(F)cc3F)ccc1C2=O | inactive | inactive | inactive | inactive | inactive | 78.7 | inactive | inactive | inactive | inactive | inactive | 0.08 | inactive | inactive | inactive | inactive | inactive | inactive
4 | COc1ccc2c(c1)C(=O)c1ccc(Nc3ccc(F)cc3Cl)cc1CC2 | inactive | inactive | inactive | inactive | inactive | 5.4 | inactive | inactive | inactive | inactive | inactive | 0.04 | inactive | inactive | inactive | inactive | inactive | inactive
5 | O=C1c2ccc(Nc3ccc(F)cc3F)cc2CCc2ccc(OCCCO)cc21 | inactive | inactive | inactive | inactive | inactive | 0.19 | inactive | inactive | inactive | inactive | inactive | 0.008 | inactive | inactive | inactive | inactive | inactive | inactive
6 | O=C1c2ccc(Nc3ccc(F)cc3F)cc2CCc2ccc(OCCCN3CCOCC3)cc21 | inactive | inactive | inactive | inactive | inactive | 0.08 | inactive | inactive | inactive | inactive | inactive | 0.008 | inactive | inactive | inactive | inactive | inactive | inactive
7 | CC1(C)OC[C@H](COc2ccc3c(c2)C(=O)c2ccc(Nc4ccccc4N)cc2CC3)O1 | inactive | inactive | inactive | inactive | inactive | 0.19 | inactive | inactive | inactive | inactive | inactive | 0.03 | inactive | inactive | inactive | inactive | inactive | inactive
8 | CC1(C)OC[C@H](COc2ccc3c(c2)C(=O)c2ccc(Nc4ccc(F)cc4F)cc2CC3)O1 | inactive | inactive | inactive | inactive | inactive | 0.23 | inactive | inactive | inactive | inactive | inactive | 0.02 | inactive | inactive | inactive | inactive | inactive | inactive
9 | Nc1ccccc1Nc1ccc2c(c1)CCc1ccc(OC[C@H](O)CO)cc1C2=O | inactive | inactive | inactive | inactive | inactive | 0.08 | inactive | inactive | inactive | inactive | inactive | 0.02 | inactive | inactive | inactive | inactive | inactive | inactive
